The subject of one series is NCI-H358 (KRAS G12C). In words: Washout viability assay. Type of series: cell-based. To be noted: for IC50: Homo sapiens; for IC50 shift fold: washout vs no-washout. As to the method:
(§1) Cancer cell lines NCI-H358, NCI-H2122, and SW480 (purchased from ATCC) were cultured in RPMI1640 (Thermo Fisher Scientific) medium plus 10% Fetal Bovine Serum (FBS, Thermo Fisher Scientific, 2.5 μg/mL puromycin and 1% Antibiotic-Antimycotic (Thermo Fisher Scientific) and plated at a density of 2,000 cells per well in 96-well assay plates (Corning-3699) and incubated overnight. On the assay day, compounds diluted to a final DMSO concentration of 0.5% were added to the wells. Following a 4-hour incubation period, the culture medium was removed, and the cells were washed three times with RPMI1640 medium only before being cultured in the abovementioned culture medium (RPMI1640+10% FBS+1% antibiotic-antimycotic). After 72 hours, a tenth of the volume of Cell Counting Kit-8 (Dojindo-CK04) was added to each well. The absorbance was measured (OD450 minus OD650) using an EnVision plate reader after a further 2-hour incubation. The IC50 values were calculated by applying a four-parameter sigmoidal concentration-response curve fit to the data.

A further series relates to SW480 (KRAS G12V). In words: Washout viability assay. In kind it is cell-based. To be noted: for IC50: Homo sapiens; for IC50 shift fold: washout vs no-washout. The procedure: as §1
For another series, the system named is NCI-H2122 (KRAS G12C). In words: Washout viability assay. In kind it is cell-based. To be noted: for IC50: Homo sapiens; for IC50 shift fold: washout vs no-washout. As to the method:
as §1

The next series addresses CYPA (Homo sapiens (Human), UniProt P62937). The experiment in a line: CYPA binding analysis by surface plasmon resonance (SPR). The text has this: The compounds of this invention created a tri-complex involving the active RAS protein and CYPA, necessitating the initial formation of a binary complex through the compound's interaction with CYPA. The stability of the drug-target complex, as indicated by its equilibrium dissociation constant (KD), is thought to influence the length of target engagement, which in turn could lead to a prolonged effect in the washout experiments. Therefore, the objective of this study is to evaluate the binding kinetics of the compounds with CYPA to determine the stability of the CYPA-compound binary complex and to evaluate whether this stability correlates with the sustained inhibition of the target.
All SPR experiments were conducted on a Biacore 8K+ instrument (Cytiva). Recombinant biotinylated CYPA protein with a C-terminal AVI tag was purified and immobilized on flow cell 2 of SA chip (Cytiva, BR100531), with the flow cell 1 as the blank reference. The running buffer was HBS-P+ Buffer (Cytiva, BR100827, 0.01 M HEPES pH 7.4,0.15 M NaCl, 0.05% v/v Surfactant P20), and the flow rate was 10 μL/min. The immobilization level was achieved to about 1800 response units (RU). Compounds were 3-fold serially diluted to 1.5-3333 nM using HBS-P+Buffer with a final DMSO concentration of 1.5%, and then loaded to flow through the chip surface at a rate of 30 μL/min with HBS-P+Buffer containing 1.5% DMSO as the running buffer. Experiments were performed at 25° C. The contact time and dissociation time were set to 60 s and 200 s, respectively. After binding and dissociation of each sample, the chip was regenerated using 1 M NaCl with a short contact time of 19 s at a rate of 60 μL/min. The sensorgrams were analyzed using Biacore Insight Evaluation software with 1:1 kinetics binding model to determine the association rate constant (kon), dissociation rate constant (koff) and equilibrium dissociation constant (KD).
(In SPR one partner is held on a chip, and binding of the other changes the refractive index at the surface.)

The target of another series is hERG potassium channel (Homo sapiens (Human), UniProt Q12809). In words: hERG potassium channel assay (manual patch clamp, CHO cells). In kind it is cell-based. To be noted: for IC50 / IC20: 34° C., manual patch, CHO cells; for IC20: human, CHO cells stably transfected with hERG channel. As to the method: The purpose of the test was to screen compounds for the activity on hERG channels as a non-clinical cardiac safety evaluation.
hERG potassium channel, sequence (Q12809 whole entry): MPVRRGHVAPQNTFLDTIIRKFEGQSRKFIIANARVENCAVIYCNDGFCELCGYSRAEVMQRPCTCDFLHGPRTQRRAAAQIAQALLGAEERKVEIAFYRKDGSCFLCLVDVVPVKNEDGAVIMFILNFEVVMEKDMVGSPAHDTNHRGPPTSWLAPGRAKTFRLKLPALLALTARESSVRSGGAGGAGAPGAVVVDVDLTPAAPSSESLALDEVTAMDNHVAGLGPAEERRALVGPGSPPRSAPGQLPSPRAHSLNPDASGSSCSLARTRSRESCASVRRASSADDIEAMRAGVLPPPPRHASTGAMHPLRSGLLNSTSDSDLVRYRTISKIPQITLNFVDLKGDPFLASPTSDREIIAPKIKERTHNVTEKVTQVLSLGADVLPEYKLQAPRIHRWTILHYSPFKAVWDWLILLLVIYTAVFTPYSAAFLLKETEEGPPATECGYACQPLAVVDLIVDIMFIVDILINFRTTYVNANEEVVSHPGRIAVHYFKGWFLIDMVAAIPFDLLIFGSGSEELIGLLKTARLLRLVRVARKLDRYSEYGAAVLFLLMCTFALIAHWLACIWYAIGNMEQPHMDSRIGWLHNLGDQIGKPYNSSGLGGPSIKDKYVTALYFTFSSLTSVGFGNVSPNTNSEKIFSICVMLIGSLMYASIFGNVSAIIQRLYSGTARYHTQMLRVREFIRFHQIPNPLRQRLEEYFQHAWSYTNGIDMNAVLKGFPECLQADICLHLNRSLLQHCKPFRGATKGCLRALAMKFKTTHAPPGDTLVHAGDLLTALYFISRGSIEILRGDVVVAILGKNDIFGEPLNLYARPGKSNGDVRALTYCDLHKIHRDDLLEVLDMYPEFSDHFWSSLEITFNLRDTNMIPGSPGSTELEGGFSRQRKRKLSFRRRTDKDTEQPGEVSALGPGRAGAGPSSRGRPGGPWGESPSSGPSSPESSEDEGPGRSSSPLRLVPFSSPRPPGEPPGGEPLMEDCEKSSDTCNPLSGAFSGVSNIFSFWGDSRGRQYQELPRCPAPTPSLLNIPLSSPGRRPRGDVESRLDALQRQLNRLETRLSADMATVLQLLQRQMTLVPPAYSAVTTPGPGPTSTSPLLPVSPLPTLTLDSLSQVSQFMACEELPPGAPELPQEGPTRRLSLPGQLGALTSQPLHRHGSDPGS
Advanced hERG experiments were performed at near-physiological temperature (34° C.) by HEKA EPC10 manual patch system (heka elektronik, EPC10 amplifier). The CHO cells (B′SYS GmbH) stably transfected hERG channel were initially held at −80 mV, depolarized to voltages between −40 mV (100 ms) to 20 mV (500 ms) to activate the hERG outward currents, and then repolarized to −40 mV (500 ms) to record the hERG tail currents, with an interpulse interval of 15s. The recording environment included: Extracellular solution (in mM): 150 NaCl, 4 KCl, 1.2 CaCl2), 1 MgCl2 and 10 HEPES; pH adjusted to 7.2-7.4 with 5 M NaOH; Intracellular solution (in mM): 125 KCl, 10 NaCl, 5 EGTA, 10 HEPES, 0.1 Na2GTP and 5 MgATP; pH adjusted to 7.2 with 1 M KOH. Current inhibitions in the presence of more than 4 concentrations in quadruplicate were used to fit hERG IC50 by Graphpad prism V8.0.
(In general: hERG is a cardiac potassium channel; its block is linked to QT prolongation.)

The next series deals with DUSP6. In words: SHP-77 xenograft single-dose PK/PD study, tumor DUSP6 levels. Type of series: in vivo, mouse. Particulars: single oral dose of 30 mg/kg. An excerpt:
The purpose of the study was to assess the anti-tumor activity in difficult KRAS mutated xenograft tumor model using SHP-77 (small cell lung cancer, SCLC; ATCC CRL-2195) by examining the time-dependent effects on MAPK pathway modulation and tumor suppression post-administration of Example 24 and reference compound A122.
Female CB17-SCID mice at 6-8 weeks old from Vital River Co., LTD. were used for these studies. In order to generate subcutaneous xenograft tumors, each mouse was inoculated at the right flank with tumor cells in 100 μL of PBS and Matrigel matrix in the right hind flank with 1×10^7 cells. Mouse health was monitored daily, and caliper measurements began when tumors were palpable. Tumor volume measurements were determined utilizing the formula 0.5×L×W^2 in which L refers to length and W refers to width of each tumor. When tumors reached an average tumor volume of approximately 100-200 mm^3 for efficacy study and 300-500 mm^3 for single-dose PK/PD study, mice were randomized into treatment groups.
Mice were treated by oral gavage at 10 mg/kg with either vehicle consisting of DMSO: Solutol HS15: water=10:10:80 (% v/v/v) or compounds (Example 24, A122) in vehicle at indicated doses. For efficacy studies, animals were orally administered daily, tumor volumes and body weights were measured 3 times per week. Study day on efficacy plots indicates the day after which compound treatment was initiated. For single-dose PK/PD study, at the indicated time points after a single dose of Example 24 at the indicated dose levels, tumor samples were collected for PD analysis. RNA extraction and analysis of DUSP6 levels by in tumor tissue were performed as described in Example 134.

Setting [1] is: NCI-H358 (KRAS G12C), 4-hour treatment, three washes, 72 hours, read-out: Washout IC50.
[2] abbreviates: NCI-H358, KRAS (G12C), read-out: No-washout IC50.
[3] abbreviates: 4-hour treatment, three washes, 72 hours, read-out: Washout IC50.
Where [4] appears, read: NCI-H2122 (KRAS G12C), 4-hour treatment, three washes, 72 hours, read-out: Washout IC50.
The mark [5] stands for this setting: NCI-H2122, KRAS (G12C), read-out: No-washout IC50.

Like-named read-outs stand apart in the source and are kept apart here.

Broadly, the IC50 is the concentration at which inhibition is half-maximal. Broadly, the Kd is the concentration at which binding is half-saturated. Low readings indicate a tighter complex, high ones a looser complex. One may read the koff as the rate constant with which the complex falls apart. Broadly, the kon is a measure of how fast the partners come together. A high value points to fast association. What is called IC20 is the concentration needed for an effect of 20%.

CYPA, sequence (P62937 whole entry): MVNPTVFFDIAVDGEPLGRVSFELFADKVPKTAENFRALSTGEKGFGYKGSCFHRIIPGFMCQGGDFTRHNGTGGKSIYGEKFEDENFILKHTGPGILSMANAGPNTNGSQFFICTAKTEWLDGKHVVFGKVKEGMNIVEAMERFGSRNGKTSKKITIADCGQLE

Consider `CO[C@@H](C)c1ncc(N2CCN(C)CC2)cc1-c1c2c3cc(cc4c3n1CCC4)-c1csc(n1)C[C@H](NC(=O)[C@H]1[C@H](C)[C@@H]1C)C(=O)N1CCC[C@H](N1)C(=O)OCC(C)(C)C2` (atropisomer, axis not shown; (M)) [Example 24, (1r,2R,3S)-N-[(7S,13S)-(20M)-20-[2-[(1S)-1-methoxyethyl]-5-(4-methylpiperazin-1-yl)-3-pyridyl]-17,17-dimethyl-8,14-dioxo-15-oxa-4-thia-9,21,30,31-tetrazahexacyclo[23.3.1.1^2,5.1^9,13.0^19,27.0^21,26]hentriaconta-1 (28),2,5 (31), 19,25 (29),26-hexaen-7-yl]-2,3-dimethyl-cyclopropanecarboxamide], for which the IC50 with NCI-H358 (KRAS G12C) (setting [1]) came to 5.9 nM; in the series on NCI-H358 (KRAS G12C) (setting [2]), 1 nM; in the series with SW480 (KRAS G12V) (setting [3]) it was 8.4 nM; with SW480 (KRAS G12V) (read-out: No-washout IC50) it was 1.3 nM; with NCI-H2122 (KRAS G12C) (setting [4]), 9 nM; in the series with NCI-H2122 (KRAS G12C) (setting [5]) it was 6.7 nM. The compound also returned an IC50 at hERG potassium channel of 63700 nM. Also, the IC50 shift fold with NCI-H358 (KRAS G12C) (NCI-H358 (KRAS G12C)) amounted to 5.6 fold; in the series with SW480 (KRAS G12V), 6.7 fold; in the series with NCI-H2122 (KRAS G12C) (NCI-H2122 (KRAS G12C)), 1.3 fold. In addition, the “fold lower KD compared to A122” value at CYPA came to 2.3 fold. Besides, at CYPA, the “fold lower koff compared to A122” value stood at 2.9 fold. Besides, at CYPA (SPR, 25° C., immobilized CYPA), the dissociation constant (Kd) came to 13 nM. At CYPA (SPR, 25° C., immobilized CYPA), this compound registered an off-rate constant (koff) of 0.019 s⁻¹. Besides, on CYPA (SPR, 25° C., immobilized CYPA), the on-rate (kon) worked out at 1.4e+06 M⁻¹ s⁻¹. Moreover, the “fold higher hERG IC20 compared to A122” value at hERG potassium channel was determined as 3 fold. The “fold higher hERG IC20 compared to A252” value at hERG potassium channel was determined as 4 fold. Besides, the IC20 on hERG potassium channel was determined as 13800 nM. The “tumor DUSP6 levels remaining” value amounted to 3.9% with DUSP6 (24 h), 31% in the series on DUSP6 (48 hours) and 73.7% in the series with DUSP6 (72 hours).
As to `CCn1c(-c2cc(N3CCN(C)CC3)cnc2[C@H](C)OC)c2c3cc(ccc31)-c1csc(n1)C[C@H](NC(=O)[C@H]1C[C@@H]1C)C(=O)N1CCC[C@H](N1)C(=O)OCC(C)(C)O2` [Example A122, reference compound], the IC50 stood at 32.1 nM with NCI-H358 (KRAS G12C) (setting [1]); 2 nM in the series with NCI-H358 (KRAS G12C) (setting [2]); 47.3 nM in the series on SW480 (KRAS G12V) (setting [3]); 2.4 nM in the series on SW480 (KRAS G12V) (read-out: No-washout IC50); 29 nM in the series with NCI-H2122 (KRAS G12C) (setting [4]); 8 nM in the series on NCI-H2122 (KRAS G12C) (setting [5]). This compound also gave an IC50 at hERG potassium channel of 16900 nM. Moreover, the IC50 shift fold is reported as 16.2 fold with NCI-H358 (KRAS G12C) (NCI-H358 (KRAS G12C)), 19.7 fold with SW480 (KRAS G12V) and 3.6 fold in the series on NCI-H2122 (KRAS G12C) (NCI-H2122 (KRAS G12C)). The compound also gave a koff on CYPA (SPR, 25° C., immobilized CYPA) of 0.056 s⁻¹. Moreover, on CYPA (SPR, 25° C., immobilized CYPA), the kon was 1.9e+06 M⁻¹ s⁻¹. Moreover, the 20% effect concentration (IC20) on hERG potassium channel came out at 4600 nM. The “tumor DUSP6 levels remaining” value with DUSP6 (24 h) is 4.3%; with DUSP6 (48 hours), 67%; in the series on DUSP6 (72 hours) it was 126%.

The values are drawn from US20240417410A1, “TRICYCLIC COMPOUNDS FOR THE TREATMENT OF CANCER” (Hoffmann-La Roche Inc., priority 2023, published 2024).
